PubChem BioAssay (NCI)
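A five-concentration, 48-hour dose response in 96-well plates underlies each endpoint, interpolated linearly between surrounding concentrations. GI50 marks 50% less growth. The concentration for full growth arrest is given as TGI.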

What was measured:
Assay in all cases: DTP human tumour cell line panel, 48 h
HOP-62 NSCLC = test system: HOP-62 NSCLC
K-562 leukemia = test system: K-562 leukemia
SNB-19 CNS = test system: SNB-19 CNS
NCI-H460 lung = test system: NCI-H460 lung
MDA-MB-231 breast = test system: MDA-MB-231 breast
OVCAR-4 ovarian = test system: OVCAR-4 ovarian
HL-60(TB) leukemia = test system: HL-60(TB) leukemia
SK-MEL-5 melanoma = test system: SK-MEL-5 melanoma
SW-620 colon = test system: SW-620 colon
NCI-H226 lung = test system: NCI-H226 lung
RPMI-8226 leukemia = test system: RPMI-8226 leukemia
NCI/ADR-RES ovarian = test system: NCI/ADR-RES ovarian
HOP-92 NSCLC = test system: HOP-92 NSCLC
DU-145 prostate = test system: DU-145 prostate
LOX IMVI melanoma = test system: LOX IMVI melanoma
NCI-H23 lung = test system: NCI-H23 lung
CAKI-1 renal = test system: CAKI-1 renal
MOLT-4 leukemia = test system: MOLT-4 leukemia
PC-3 prostate = test system: PC-3 prostate
OVCAR-8 ovarian = test system: OVCAR-8 ovarian
MDA-MB-435 = test system: MDA-MB-435
M14 melanoma = test system: M14 melanoma
TK-10 renal = test system: TK-10 renal
OVCAR-5 ovarian = test system: OVCAR-5 ovarian
SR leukemia = test system: SR leukemia
RXF 393 renal = test system: RXF 393 renal
U251 CNS = test system: U251 CNS
T-47D breast = test system: T-47D breast
SF-268 CNS = test system: SF-268 CNS
SN12C renal = test system: SN12C renal
MCF7 breast = test system: MCF7 breast
BT-549 breast = test system: BT-549 breast
HCC-2998 colon = test system: HCC-2998 colon
ACHN renal = test system: ACHN renal
UACC-62 melanoma = test system: UACC-62 melanoma
SK-MEL-28 melanoma = test system: SK-MEL-28 melanoma
CCRF-CEM leukemia = test system: CCRF-CEM leukemia
786-0 renal = test system: 786-0 renal
A549 NSCLC = test system: A549 NSCLC
MALME-3M melanoma = test system: MALME-3M melanoma
HS 578T breast = test system: HS 578T breast
NCI-H522 lung = test system: NCI-H522 lung
SF-539 CNS = test system: SF-539 CNS
KM12 colon = test system: KM12 colon
UO-31 renal = test system: UO-31 renal
COLO 205 colon = test system: COLO 205 colon
OVCAR-3 ovarian = test system: OVCAR-3 ovarian
SK-MEL-2 melanoma = test system: SK-MEL-2 melanoma
HCT-15 colon = test system: HCT-15 colon
SF-295 CNS = test system: SF-295 CNS
EKVX NSCLC = test system: EKVX NSCLC
IGROV1 ovarian = test system: IGROV1 ovarian
UACC-257 melanoma = test system: UACC-257 melanoma
SK-OV-3 ovarian = test system: SK-OV-3 ovarian
A498 renal = test system: A498 renal
HT29 colon = test system: HT29 colon
HCT-116 colon = test system: HCT-116 colon
SNB-75 CNS = test system: SNB-75 CNS

C/C(=N/NC(N)=S)c1ccc(Nc2nc(SCC(C)C)nc(-c3ccc(F)cc3)c2C#N)cc1
GI50 (HOP-62 NSCLC): 3.04 µM
TGI (HOP-62 NSCLC): 13.6 µM
GI50 (K-562 leukemia): 1.41 µM
TGI (K-562 leukemia): > 100 µM
GI50 (SNB-19 CNS): 9.08 µM
TGI (SNB-19 CNS): 22.4 µM
GI50 (NCI-H460 lung): 0.414 µM
TGI (NCI-H460 lung): 10.3 µM
GI50 (MDA-MB-231 breast): 5.91 µM
TGI (MDA-MB-231 breast): 25.9 µM
GI50 (OVCAR-4 ovarian): 0.329 µM
TGI (OVCAR-4 ovarian): 2.23 µM
GI50 (HL-60(TB) leukemia): 17.9 µM
TGI (HL-60(TB) leukemia): > 100 µM
GI50 (SK-MEL-5 melanoma): 2.74 µM
TGI (SK-MEL-5 melanoma): 15.6 µM
GI50 (SW-620 colon): 0.62 µM
TGI (SW-620 colon): > 100 µM
GI50 (NCI-H226 lung): 1.46 µM
TGI (NCI-H226 lung): 14.1 µM
GI50 (RPMI-8226 leukemia): 3.26 µM
TGI (RPMI-8226 leukemia): 80.3 µM
GI50 (NCI/ADR-RES ovarian): 1.89 µM
TGI (NCI/ADR-RES ovarian): 19.1 µM
GI50 (HOP-92 NSCLC): 1.12 µM
TGI (HOP-92 NSCLC): 5.01 µM
GI50 (DU-145 prostate): 1.55 µM
TGI (DU-145 prostate): 20.3 µM
GI50 (LOX IMVI melanoma): 1.13 µM
TGI (LOX IMVI melanoma): 10.4 µM
GI50 (NCI-H23 lung): 1.72 µM
TGI (NCI-H23 lung): 12 µM
GI50 (CAKI-1 renal): 1.65 µM
TGI (CAKI-1 renal): 7.49 µM
GI50 (MOLT-4 leukemia): 2.07 µM
TGI (MOLT-4 leukemia): 79.2 µM
GI50 (PC-3 prostate): 0.59 µM
TGI (PC-3 prostate): 5.52 µM
GI50 (OVCAR-8 ovarian): 3.22 µM
TGI (OVCAR-8 ovarian): 26.4 µM
GI50 (MDA-MB-435): 2.14 µM
TGI (MDA-MB-435): 17.4 µM
GI50 (M14 melanoma): 4.41 µM
TGI (M14 melanoma): 26 µM
GI50 (TK-10 renal): 3.56 µM
TGI (TK-10 renal): 18.9 µM
GI50 (OVCAR-5 ovarian): 6.94 µM
TGI (OVCAR-5 ovarian): 47.5 µM
GI50 (SR leukemia): 0.509 µM
TGI (SR leukemia): 18.9 µM
GI50 (RXF 393 renal): 1.95 µM
TGI (RXF 393 renal): 7.16 µM
GI50 (U251 CNS): 0.77 µM
TGI (U251 CNS): 11 µM
GI50 (T-47D breast): 2.11 µM
TGI (T-47D breast): 29.8 µM
GI50 (SF-268 CNS): 10.9 µM
TGI (SF-268 CNS): 33.1 µM
GI50 (SN12C renal): 0.717 µM
TGI (SN12C renal): 14.1 µM
GI50 (MCF7 breast): 0.696 µM
TGI (MCF7 breast): 28.8 µM
GI50 (BT-549 breast): 4.04 µM
TGI (BT-549 breast): 18.4 µM
GI50 (HCC-2998 colon): 5.69 µM
TGI (HCC-2998 colon): 31.4 µM
GI50 (ACHN renal): 0.423 µM
TGI (ACHN renal): 11.4 µM
GI50 (UACC-62 melanoma): 1.66 µM
TGI (UACC-62 melanoma): 10.5 µM
GI50 (SK-MEL-28 melanoma): 2.76 µM
TGI (SK-MEL-28 melanoma): 13.4 µM
GI50 (CCRF-CEM leukemia): 5.83 µM
TGI (CCRF-CEM leukemia): > 100 µM
GI50 (786-0 renal): 2.07 µM
TGI (786-0 renal): 13.8 µM
GI50 (A549 NSCLC): 0.488 µM
TGI (A549 NSCLC): 10.9 µM
GI50 (MALME-3M melanoma): 1.88 µM
TGI (MALME-3M melanoma): 11.6 µM
GI50 (HS 578T breast): 3.08 µM
TGI (HS 578T breast): 54.1 µM
GI50 (NCI-H522 lung): 2.59 µM
TGI (NCI-H522 lung): 13.1 µM
GI50 (SF-539 CNS): 2.01 µM
TGI (SF-539 CNS): 10.4 µM
GI50 (KM12 colon): 12.7 µM
TGI (KM12 colon): > 100 µM
GI50 (UO-31 renal): 2.75 µM
TGI (UO-31 renal): 15.4 µM
GI50 (COLO 205 colon): 1.18 µM
TGI (COLO 205 colon): 22.1 µM
GI50 (OVCAR-3 ovarian): 0.685 µM
TGI (OVCAR-3 ovarian): 4.95 µM
GI50 (SK-MEL-2 melanoma): 5.09 µM
TGI (SK-MEL-2 melanoma): 19 µM
GI50 (HCT-15 colon): 0.928 µM
TGI (HCT-15 colon): > 100 µM
GI50 (SF-295 CNS): 0.598 µM
TGI (SF-295 CNS): 2.69 µM
GI50 (EKVX NSCLC): 4.53 µM
TGI (EKVX NSCLC): 25.4 µM
GI50 (IGROV1 ovarian): 4.82 µM
TGI (IGROV1 ovarian): 21.4 µM
GI50 (UACC-257 melanoma): 4.56 µM
TGI (UACC-257 melanoma): 30.1 µM
GI50 (SK-OV-3 ovarian): 3.1 µM
TGI (SK-OV-3 ovarian): 13.7 µM
GI50 (A498 renal): 2.99 µM
TGI (A498 renal): 8.8 µM
GI50 (HT29 colon): 1.28 µM
TGI (HT29 colon): 15.6 µM
GI50 (HCT-116 colon): 0.539 µM
TGI (HCT-116 colon): 13.6 µM
GI50 (SNB-75 CNS): 0.418 µM
TGI (SNB-75 CNS): 3.95 µM
